Laboratory results from PMC5556071, “ATR inhibition facilitates targeting of leukemia dependence on convergent nucleotide biosynthetic pathways” (Nature Communications, 2017).
Values joined by “and” are separate entries in the source; they are usually repeats but may differ in a detail not shown here. Identical values can stand only once.

Test system: CEM cells
Assay: Non-targeted LC-MS metabolite profiling: percent [13C6]glucose labeling and relative metabolite levels
Assay type: cell-based, human
From the text: To further investigate the functions of dCK and ATR at the G1/S transition in CEM cells, a non-targeted liquid chromatography mass spectrometry (LC-MS) assay was used to determine the utilization of labeled [^13C6]glucose and [^13C9,^15N3]deoxycytidine, the main substrates for de novo and salvage nucleotide biosynthesis, respectively. Of the 166 metabolites identified in CEM cells treated with VE-822 and/or dCKi, 105 metabolites found in all four treatment groups contained glucose-derived ^13C atoms. […] These metabolites included intermediates such as rUTP, rCTP and rCDP in the de novo dCTP biosynthesis (Fig. 1d). […] However, several deoxyribonucleotides, including dCTP, were below the limit of detection of the non-targeted LC-MS approach, raising the concern that the sensitivity of this assay is not sufficient to measure the contribution of the salvage pathway or the ratio of de novo and salvage biosynthesis to these pools. To address this problem, a newly developed targeted MS assay was developed (Fig. 1e and Supplementary Fig. 3). In this assay, samples containing either extracted dNTPs or hydrolyzed DNA from labeled cells are separated by LC for detection by a triple quadrupole mass spectrometer using multiple reaction monitoring (LC-MS/MS-MRM). The first (Q1) and third (Q3) quadrupoles function as mass filters, while the second (Q2) quadrupole serves as a collision chamber (Fig. 1e). For instance, to profile the biosynthetic composition of deoxycytidine (dC) derived from hydrolyzed DNA or dCTP, an intact, protonated dC ion is selected in Q1, followed by fragmentation of the glycosidic bond, which releases protonated cytosine in Q2, that is filtered in Q3 and detected to generate an ion chromatogram. The peak areas for the ion chromatograms of salvage [^13C9,^15N3]dC (red trace), de novo [^13C5]dC (black trace, from [^13C6]glucose) and unlabeled dC (gray trace) (Fig. 1e) are used to determine the relative contributions of the de novo and salvage routes both to dCTP pools and to DNA-incorporated dCTP.
Cells were transferred into RPMI-1640 without glucose and supplemented with 10% dialyzed FBS (Gibco) containing the following labeled substrates: precursors for de novo [U-^13C6]glucose (Sigma-Aldrich, 389374) at 11 mM; precursors for purine salvage [U-^13C10,^15N5]dA (Cambridge Isotopes, CIL 3896), [^15N5]dA (Cambridge Isotopes, NLM-3895) and [^15N5]dG (Cambridge Isotopes, NLM-3899) at 5 µM or as indicated; and precursors for pyrimidine salvage: [U-^13C9,^15N3]dC (Silantes, 124603602) and [U-^13C10,^15N2]dT (Cambridge Isotopes, CNLM-3902) at 5 µM and [^15N2]orotate (Cambridge Isotopes, NLM-1048) at indicated concentrations. The cells were incubated for 12 h or as indicated before sample collection and processing. […]
Non-targeted LC-MS metabolic assays. 1 x 10^6 cells were washed with ice-cold 150 mM ammonium acetate twice before adding 1 mL of ice-cold 80% methanol with 10 nM norvaline as an internal standard. After vigorous vortexing, samples were centrifuged at maximum speed, the aqueous layer was transferred to a glass vial and the metabolites were dried under vacuum. Metabolites were resuspended in 50 μL 70% acetonitrile (ACN) and 5 μL of this solution used for the mass spectrometer-based analysis. The analysis was performed on a Q Exactive (Thermo Scientific) in polarity-switching mode with positive voltage 4.0 kV and negative voltage 4.0 kV. The mass spectrometer was coupled to an UltiMate 3000RSLC (Thermo Scientific) UHPLC system. Mobile phase A was 5 mM ammonium acetate (NH4AcO), pH 9.9, B was acetonitrile and the separation achieved on a Luna […] NH2 100 A column (150 × 2.0 mm, Phenomenex). The flow was 200 μL/min, and the gradient ran from 15% A to 95% A in 18 min, followed by an isocratic step for 9 min and re-equilibration for 7 min. Metabolites were detected and quantified as area under the curve based on retention time and accurate mass (≤ 3 p.p.m.) using the TraceFinder 3.1 (Thermo Scientific). Relative amounts of […]

[1] = metabolite Gln (KEGG C00064), CEM cells, 12 h following release from G1 arrest, replicates #1-#6, listed as V
[2] = metabolite Glu (KEGG C00025), CEM cells, 12 h following release from G1 arrest, replicates #1-#6, listed as V
[3] = metabolite GlucA (KEGG C00191), CEM cells, 12 h following release from G1 arrest, replicates #1-#6, listed as V
[4] = metabolite Gly (KEGG C00037), CEM cells, 12 h following release from G1 arrest, replicates #1-#6, listed as V
[5] = metabolite Glycerol (KEGG C00116), CEM cells, 12 h following release from G1 arrest, replicates #1-#6, listed as V
[6] = metabolite Glycerol-2-P (KEGG C02979), CEM cells, 12 h following release from G1 arrest, replicates #1-#6, listed as V
[7] = metabolite Glycerol-3-P (KEGG C00093), CEM cells, 12 h following release from G1 arrest, replicates #1-#6, listed as V
[8] = metabolite Homocysteine (KEGG C00155), CEM cells, 12 h following release from G1 arrest, replicates #1-#6, listed as V
[9] = metabolite Hypoxanthine (KEGG C00262), CEM cells, 12 h following release from G1 arrest, replicates #1-#6, listed as V
[10] = metabolite IMP (KEGG C00130), CEM cells, 12 h following release from G1 arrest, replicates #1-#6, listed as V
[11] = metabolite Inosine (KEGG C00294), CEM cells, 12 h following release from G1 arrest, replicates #1-#6, listed as V
[12] = metabolite a-KG (C00026), CEM cells, 12 h following release from G1 arrest, replicates #1-#6, listed as V

## CNCc1ccc(-c2cc(-c3nc(-c4ccc(S(=O)(=O)C(C)C)cc4)cnc3N)on2)cc1 [VE-822]
[1]
  Glucose labeling of Gln: 0.12% (2×) and 0.11% and 0.10% and 0.14% and 0.13%
  Relative level of Gln: 1.4 and 1.5 (2×) and 1.0 (2×) and 1.1
[2]
  Glucose labeling of Glu: 29.64% and 29.75% and 29.30% and 29.37% and 29.63% and 30.02%
  Relative level of Glu: 1.1 and 1.0 (2×) and 0.8 and 0.6 (2×)
[3]
  Glucose labeling of GlucA: 1.00% and 0.54% and 0.16% and 1.19% and 0.18% (2×)
  Relative level of GlucA: 1.5 and 1.3 (2×) and 0.9 and 0.664 and 0.6
[4]
  Glucose labeling of Gly: 3.91% and 4.81% and 4.97% and 3.57% and 3.82% and 3.53%
  Relative level of Gly: 1.8 and 1.3 (2×) and 0.853 and 0.8 and 0.846
[5]
  Glucose labeling of Glycerol: 0.0369% (3×) and 0.02% and 0.03% and 0.0184%
  Relative level of Glycerol: 0.6 and 1.0 and 0.643 and 1.2 (2×) and 2.5
[6]
  Glucose labeling of Glycerol-2-P: 20.62% and 19.08% and 14.73% and 9.01% and 11.61% and 10.03%
  Relative level of Glycerol-2-P: 2.7 and 1.2 and 1.6 and 1.8 and 0.334 and 0.262
[7]
  Glucose labeling of Glycerol-3-P: 13.71% and 13.99% and 13.43% and 15.94% and 16.61% and 16.91%
  Relative level of Glycerol-3-P: 1.3 and 1.4 (2×) and 1.0 (2×) and 0.9
Metabolite HS2O3 (KEGG C00320), CEM cells, 12 h following release from G1 arrest, replicates #1-#6
  Glucose labeling of HS2O3: 100.00%
Metabolite HS2O3 (KEGG C00320), CEM cells, 12 h following release from G1 arrest, replicates #1-#6, listed as V
  Relative level of HS2O3: 1.2 and 0.9 and 1.0 (3×) and 1.1
Metabolite His (KEGG C00135), CEM cells, 12 h following release from G1 arrest, replicates #1-#6
  Glucose labeling of His: 0.00%
Metabolite His (KEGG C00135), CEM cells, 12 h following release from G1 arrest, replicates #1-#6, listed as V
  Relative level of His: 1.3 and 1.5 and 1.4 and 0.7 and 0.8 (2×)
[8]
  Glucose labeling of Homocysteine: 0.000288% and 0.000653% and 0.00102% and 0.000955% and 0.0737% (2×)
  Relative level of Homocysteine: 2.9 and 3.8 and 5.4 and 40.5 and 0.9 and 1.3
[9]
  Glucose labeling of Hypoxanthine: 0.12% (2×) and 0.05% and 0.0153% and 0.00222% and 0.0636%
  Relative level of Hypoxanthine: 2.4 and 3.2 and 4.8 and 46.0 and 2.3 and 1.3
[10]
  Glucose labeling of IMP: 85.88% and 80.98% and 88.08% and 72.70% and 96.97% and 95.32%
  Relative level of IMP: 2.4 and 1.3 (2×) and 1.7 and 0.4 (2×)
[11]
  Glucose labeling of Inosine: 46.28% and 0.55% and 45.89% and 28.71% and 31.06% and 6.95%
  Relative level of Inosine: 1.9 and 1.5 and 4.0 and 5.0 and 1.2 and 4.1
Metabolite Inositol (KEGG C00137), CEM cells, 12 h following release from G1 arrest, replicates #1-#6
  Glucose labeling of Inositol: 0.00%
Metabolite Inositol (KEGG C00137), CEM cells, 12 h following release from G1 arrest, replicates #1-#6, listed as V
  Relative level of Inositol: 1.2 and 1.3 (2×) and 1.0 (3×)
Metabolite Isocaproate (X00005), CEM cells, 12 h following release from G1 arrest, replicates #1-#6
  Glucose labeling of Isocaproate: 0.00%
Metabolite Isocaproate (X00005), CEM cells, 12 h following release from G1 arrest, replicates #1-#6, listed as V
  Relative level of Isocaproate: 0.949 and 1.1 and 1.2 and 0.9 and 1.0 and 0.7
[12]
  Glucose labeling, a-KG: 12.64% and 3.49% and 7.53% and 10.05% and 2.98% and 1.28%
  Relative level, a-KG: 1.7 and 0.7 and 1.0 and 0.9 and 0.3 and 0.255
non-targeted LC-MS analysis
  decrease of glucose labeling of orotidine monophosphate (OMP): 30%
